Source: patent US20070265212A1, “Drug Transport and Delivery System” (LUZERN ACQUISITION CORP., C/O STRELA DEVELOPMENT, priority 2002, published 2007)

Key:
[1] = tested on: human melanoma cells; assay: Metabolite formation in the presence of human melanoma cells (HPLC, mass spectrometry); type: in vitro ADME; settings: identified by HPLC and mass spectrometry
Method: (§1) These metabolites were identified by HPLC and mass spectrometry to be m-L-Sarcolysin, prolyl-m-L-sarcolysin, fluoro-phenylalanine and prolyl-m-sarcolysyl-p-fluoro-phenylalanin.
(§2) According to hitherto is available results this metabolite is most probably ADM linked to one Phe moiety. This was done with 1 ml of blood containing 20 μg/ml of the ADM derivative as well as 5×10^9 RBC compared to only 5×10^6 melanoma cells.

[2] = tested on: red blood cells; assay: Metabolite formation in the presence of red blood cells (HPLC, mass spectrometry); type: in vitro ADME; settings: identified by HPLC and mass spectrometry
Method: as §1, §2

For “Prolyl-m-sarcolysyl-p-fluoro-phenylalanin [PSF]”, the “metabolites in the presence of cancer cells” value [1] was 4 and the “metabolites in presence of red blood cells” value [2] was “one major metabolite, namely m-L-sarcolysin”.
